Test results reported in US20140235649A1, “USE OF PHOSPHATASE INHIBITORS OR HISTONE DEACETYLASE INHIBITORS TO TREAT DISEASES CHARACTERIZED BY LOSS OF PROTEIN FUNCTION” (LIXTE BIOTECHNOLOGY, INC., priority 2011, published 2014).
“Also recorded” adds a separate entry of the source.

What was measured:
[1] = test system: beta-glucocerebrosidase (GBA); test: GBA levels in human cells from Gaucher's disease type 1 / type 3 patients (Examples 2-4)
[2] = test system: SDHB protein; test: SDHB protein levels in tumor cells from SDHB derived tumors (Examples 9-10); conditions: Example 9, versus untreated cells
[3] = test system: mutant SDHB protein; test: Immunoprecipitation of mutant SDHB: ubiquitination and Hsp90 binding; format: cell-based, human; conditions: immunoprecipitated ΔSDHB-R49Q (FIG. 14E)
Description: Protein was extracted from cell cultures using IP lysis buffer with Halt proteinase inhibitor cocktail (Thermo Scientific). Four hundred microgram of total protein was precipitated with Flag antibody (1:200, Origene) using a DynaBeads Protein G immunoprecipitation kit (Invitrogen). Proteins were precipitated overnight at 4° C. and eluted for Western blot analysis.

[4] = test system: missense glucocerebrosidase; conditions: previously found (REF); cited from earlier work
[5] = test system: ΔSDHB-L65P; test: ΔSDHB-L65P protein half-life through CHX treatment, Western blot, HeLa cells; format: cell-based, human
Description: Western blot analysis was performed as previously described with minor modifications (Zhuang et al, 2011). Microdissected tumor tissue and cell pellets were extracted for protein using RIPA lysis buffer supplemented with Halt proteinase inhibitor cocktail (Thermo Scientific, Rockford, Ill.). Protein was vortexed at 4° C. for 20 min and centrifuged in 12,000 g for 10 min at 4° C. Supernatant was collected and protein quantity was identified through a Bio-Rad (Hercules, Calif.) Protein Assay kit. Equal amount of proteins were separated on NuPAGE 4-12% Bis-Tris gel (Invitrogen, Carlsbad, Calif.) and transferred to PVDF membranes (Invitrogen). Membranes were blocked in 5% skim dried milk in PBST and blotted with primary antibody. Protein expression was identified through chemiluminescence kit (Thermo Scientific). The following antibodies were used: SDHA (1:1,000, Cell Signaling Technology, Beverly, Mass.), SDHB (1:1,000, Sigma-Aldrich, St. Louis Mo.), Flag (1:2,000, Origene, Rockville, Md.), Ubiquitin (1:1,000, Abcam, Cambridge, Mass.), HA (1:2,000, Origene), Hsp90 (1:1,000, Cell Signaling Technology) and β-Actin (1:1,000, Santa Cruz Biotechnology, Inc., Santa Cruz, Calif.).
HeLa cells were maintained in DMEM containing 10% FBS (Invitrogen). Cells were transfected with SDHB vectors by FuGENE 6 transfection reagent (Roche, Indianapolis, Ind.). Medium was changed 4 hours after transfection and cells were maintained 48 hours before cycloheximide (20 μg/mL, Sigma-Aldrich) treatment.
Ubiquitin-HA vector was described previously (Kamitani et al. (1997)). Human wild type SDHB gene was cloned into pCMV6-Entry vector (Origene). Hot spot missense mutations in SDHB related PHEOs/PGLs based on previous findings (Van Nederveen et al. (2006); Henderson et al. (2009); Pawlu et al. (2005)). Mutagenesis was performed based on wild type SDHB vector using a Quikchange Lightning Site-Directed Mutagenesis Kit (Agilent, Santa Clara, Calif.). For each mutant, the sequence of SDHB gene was verified through sequencing the entire coding region of the gene. Vectors were purified through PureLink HiPure Plasmid Maxiprep kit (Invitrogen) for transfection and cell free protein expression.

[6] = test system: VHL protein; test: VHL protein levels in tumor cells from VHL derived tumors (Examples 6-7); conditions: Example 6, versus untreated cells
[7] = test system: ΔGBA-N370S; test: Metabolic [35S] pulse chase assay, HeLa cells with ΔGBA-N370S vector; format: cell-based, human; conditions: N370S mutant
Description: (§1) Human GBA gene was cloned into pCMV6-Entry vector (Origene; Rockville, Md.). Mutagenesis was performed using a QuikChange Lightning Site-directed mutagenesis kit (Agilent; Santa Clara, Calif.). Mutagenesis reaction was conducted using primers with N370S and L444P mutation sites. For each mutant, the sequence of GBA genes was verified by sequencing the entire coding regions.
(§2) Metabolic [^35S] pulse chase assay was performed as previously described with minor modifications (16). A total of 5×10^5 HeLa cells were transfected with GBA vectors through FuGene 6 transfection reagent (Roche; Indianapolis, Ind.). Cells were used for pulse chase assay 24 hr after transfection. Cells were starved in methionine-depleted medium for 15 min followed by 15 min labeling in methionine-free Delbecco's modified Eagle medium (DMEM) supplemented with 10% FBS and 0.2 mCi/mL [^35S]-methionine ([…] specific activity, Perkin Elmer). The cells were then chased in DMEM with 10% FBS and 3 mg/mL methionine. Cells were extracted for protein within various durations after radioactive labeling. Cells were lysed in RIPA lysis buffer containing with Halt proteinase inhibitor cocktail (Thermo; Waltham, Mass.). GBA proteins were purified through immunoprecipitation using 200 ug total lysate with Flag antibody (Origene; Rockville, Md.). Precipitated proteins were resolved on NuPAGE Novex 4-12% Bis-Tris Gel (Invitrogen; Carlesbad, Calif.) and measured by liquid scintillation counting. The gel was fixed and incubated in EN3HANCE (Perkin Elmer; Waltham, Mass.) for 45 min and dried for X-ray film exposure.

[8] = test system: ΔGBA-L444P; test: Metabolic [35S] pulse chase assay, HeLa cells with ΔGBA-L444P vector; format: cell-based, human; conditions: L444P mutant
Description: as §1, §2

Compound: CN1CCN(C(=O)C2C(C(=O)O)[C@H]3CC[C@@H]2O3)CC1 (stereo partly shown) [LB100]
- GBA levels / amount of GBA ([1]; Gaucher's disease type 1 and type 3 cells, 24 hours (Example 3, FIG. 1-3)): increased; also recorded: increased in all treatments, and the increase was not dose-dependent; also recorded: significantly higher than in untreated cells
- GBA levels ([1]; Gaucher's disease type 3 cells, 24 hours (Example 2)): significantly higher than in untreated cells

Compound: O=C(CCCCCNC(=O)c1ccccc1S)Nc1ccccc1 [LB-201]
- SDHB levels [2]: significantly higher than in untreated cells
- degradation of SDHB [2]: decreased degradation of SDHB
- Hsp90 binding to mutant SDHB [3]: also decreased
- SDHB mutant protein ubiquitination [3]: decreased SDHB mutant protein ubiquitination
- co-translational degradation of missense glucocerebrosidase [4]: protect missense glucocerebrosidase from co-translational degradation
- degradation / loss of mutant SDHB protein ([5]; L65P mutant): slowed the degradation of mutant protein; also recorded: decreased the loss of mutant SDHB
- VHL levels [6]: significantly higher than in untreated cells
- degradation of VHL [6]: decreased degradation of VHL

Compound: CC1=C(O)C(=O)C=C2C1=CC=C1[C@@]2(C)CC[C@@]2(C)[C@@H]3C[C@](C)(C(=O)O)CC[C@]3(C)CC[C@]12C [celastrol]
- increase in radioactively labeled protein quantity [7]: 33%
- increase in [35S]-GBA residue [8]: 104%
- SDHB protein remaining intact ([5]; L65P, after a 2 hr CHX treatment): more than 50%
